Reference: patent publication US6228382A, “Microbiocidal mixtures” (ETC C.V., priority 1996, dated 2001)

Tests used:
[1] = Determination of the octanol/water partition coefficients (logPow) by HPLC, OECD guideline 117; assay type: physicochemical; conditions: rp 18 hplc; HPLC method, RP 18 column, OECD 117; read-out: logPow (octanol/water partition coefficient)
[2] = Determination of the relative leaching rate from house paint (watering with tap water, HPLC of methanol extracts); assay type: physicochemical
Text: First, 128 parts by weight (PW) of water were initially charged. 11 PW of a 10% strength by weight solution of Calgon N (sodium triphosphate) were subsequently stirred into the water. Thereafter, 2 PW of Tylose MHB 6000 (from Hoechst AG), 3 PW of Additol XW 330 (from Hoechst AG), 4 PW of Agitan 260 (from Munzing-Chemie, Heilbronn), 226 PW of titanium dioxide (for example from Kronos 2065), 375 PW of MOWILITH® DM 771 (about 50%) (from. HOECHST), 84 PW of Omyacarb 5 (from Omya), 84 PW of Micro Mica W1, 38 PW of Micro Talc AT 1 and 20 PW of China Clay D were added and homogenized. 11 PW of white spirit, 8 PW of butyl diglycol acetate and 4 PW of MERGAL® K 9 N (Riedel de Haen) were stirred into the resulting mixture. The pH of the resulting house paint was 8.8.
The preservatives listed in Table 2 were homogeneously dispersed into the resulting house paint.
The resulting paint sample was in each case drawn out to a film of approximately 150 g/m^2 on paper, using a knife. The paint sample prepared in this manner was subsequently dried at a temperature of 30° C. for 72 hours.
Test samples having a diameter of 5.5 cm were punched out from the paint sample. To simulate leaching by rainwater, these paint-coated test samples were watered with tap water (46.7 1/day/m^2 of paint). Test samples were taken in each case after 24 hours and air-dried for 72 hours.
To determine the microbicide concentration, in each case one specimen was extracted in methanol. The methanol extracts were analysed by HPLC. […]
column: RP-phenyl (Hypersil 5 μ) mobile phase: gradient water/acetonitrile
UV-Detector: 220 nm and 200 nm
Since in each analysis, the substances listed in Table 3 were measured as the area under the HPLC signal, it is possible to relate the leaching rates directly to the known active compounds OITZ and Mctt.

With `CCCCCCCCCCn1sccc1=O` [DITZ, 2-n-decyl-isothiazolin-3-one] the chromatographic logP [1] was 4.14.
In the case of `CSc1nc(NC2CC2)nc(NC(C)(C)C)n1` [Mctt, 2-methylthio-4-cyclopropylamino-6-t-butylamino-1,3,5-triazine], the HPLC area ([2]; 0 h watering) is reported as 955.2 arbitrary units, the HPLC relative area ([2]; 0 h watering) is reported as 1 and the HPLC area ([2]; 24 h watering) is reported as 787.1 arbitrary units. The HPLC relative area ([2]; 24 h watering) was 0.824, the HPLC area ([2]; 48 h watering) was 800.2 arbitrary units and the HPLC relative area ([2]; 48 h watering) was 0.837. For the same molecule, the HPLC area ([2]; 72 h watering) was 677.6 arbitrary units, the HPLC relative area ([2]; 72 h watering) was 0.708 and the HPLC area ([2]; 96 h watering) was 547.4 arbitrary units. The HPLC relative area ([2]; 96 h watering) was 0.572.
Work on `CCCCCCCCCn1sccc1=O` [NITZ, 2-n-nonylisothiazolin-3-one] yielded a chromatographic logP [1] of 3.51.
Molecule `CCCCCCCCn1sccc1=O` [OITZ, 2-n-octylisothiazolin-3-one] has a chromatographic logP [1] of 2.89.
In the case of `CCCCCCCCCCCn1sccc1=O` [compound 11, 2-n-undecylisothiazolin-3-one], the chromatographic logP [1] is reported as 4.76.
Work on `CCCCCCCCCCCCn1sccc1=O` [dodecyl-ITZ, 2-n-dodecylisothiazolin-3-one] yielded a chromatographic logP [1] of 5.36.
